Activity calls are given as the source filed them. No cut-off for these calls is given here.
Experiments:
[1] = Inhibition of recombinant AUR1 (unknown origin); parameters: species or system Homo sapiens
[2] = biological target: CDC7/DBF4 (Cell division cycle 7-related protein kinase/Activator of S phase kinase) (Homo sapiens, UniProt O00311); experiment: Inhibition of recombinant CDC7/DBF4 (unknown origin); assay type: protein-complex assay
[3] = biological target: Cyclin-dependent kinase 4/cyclin D1 (Homo sapiens, UniProt P11802); experiment: Inhibition of recombinant CDK4/CYCD1 (unknown origin); assay type: protein-complex assay
Cyclin-dependent kinase 4/cyclin D1, sequence (P11802 whole entry): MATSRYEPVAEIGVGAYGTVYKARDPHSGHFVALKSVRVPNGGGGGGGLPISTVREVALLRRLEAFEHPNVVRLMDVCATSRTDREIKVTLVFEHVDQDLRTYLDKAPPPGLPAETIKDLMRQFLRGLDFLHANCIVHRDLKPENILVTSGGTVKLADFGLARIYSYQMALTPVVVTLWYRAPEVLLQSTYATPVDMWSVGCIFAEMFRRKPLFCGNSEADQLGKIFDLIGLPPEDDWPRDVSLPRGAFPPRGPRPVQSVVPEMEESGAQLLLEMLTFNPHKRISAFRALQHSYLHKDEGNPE
Cyclin-dependent kinase 4/cyclin D1, sequence (P24385 whole entry, further chain): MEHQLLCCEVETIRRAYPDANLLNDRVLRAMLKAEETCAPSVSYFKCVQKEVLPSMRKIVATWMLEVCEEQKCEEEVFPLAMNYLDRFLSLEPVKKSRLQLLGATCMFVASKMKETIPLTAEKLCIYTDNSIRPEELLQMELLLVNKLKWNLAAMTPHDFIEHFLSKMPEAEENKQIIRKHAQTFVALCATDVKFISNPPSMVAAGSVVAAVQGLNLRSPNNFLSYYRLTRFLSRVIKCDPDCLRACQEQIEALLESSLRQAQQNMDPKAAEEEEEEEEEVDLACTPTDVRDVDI

[4] = biological target: Mitogen-activated protein kinase 1 (Homo sapiens, UniProt P28482); experiment: Inhibition of recombinant ERK2 (unknown origin)
Mitogen-activated protein kinase 1, sequence (P28482 whole entry): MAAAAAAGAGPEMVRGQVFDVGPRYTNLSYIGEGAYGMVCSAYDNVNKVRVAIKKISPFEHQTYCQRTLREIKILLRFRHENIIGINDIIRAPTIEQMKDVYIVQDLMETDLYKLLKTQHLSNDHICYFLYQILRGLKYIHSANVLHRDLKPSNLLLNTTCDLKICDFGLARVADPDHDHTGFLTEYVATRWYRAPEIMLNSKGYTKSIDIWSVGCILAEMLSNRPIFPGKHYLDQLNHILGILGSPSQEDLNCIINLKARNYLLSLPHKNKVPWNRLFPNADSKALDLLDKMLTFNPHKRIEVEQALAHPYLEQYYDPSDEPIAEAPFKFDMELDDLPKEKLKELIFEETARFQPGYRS

[5] = biological target: Inhibitor of nuclear factor kappa-B kinase subunit beta (Homo sapiens, UniProt O14920); experiment: Inhibition of recombinant IKK2 (unknown origin)
[6] = biological target: Tyrosine-protein kinase JAK1 (Homo sapiens, UniProt P23458); experiment: Inhibition of recombinant JAK1 (unknown origin)
Tyrosine-protein kinase JAK1, sequence (P23458 whole entry): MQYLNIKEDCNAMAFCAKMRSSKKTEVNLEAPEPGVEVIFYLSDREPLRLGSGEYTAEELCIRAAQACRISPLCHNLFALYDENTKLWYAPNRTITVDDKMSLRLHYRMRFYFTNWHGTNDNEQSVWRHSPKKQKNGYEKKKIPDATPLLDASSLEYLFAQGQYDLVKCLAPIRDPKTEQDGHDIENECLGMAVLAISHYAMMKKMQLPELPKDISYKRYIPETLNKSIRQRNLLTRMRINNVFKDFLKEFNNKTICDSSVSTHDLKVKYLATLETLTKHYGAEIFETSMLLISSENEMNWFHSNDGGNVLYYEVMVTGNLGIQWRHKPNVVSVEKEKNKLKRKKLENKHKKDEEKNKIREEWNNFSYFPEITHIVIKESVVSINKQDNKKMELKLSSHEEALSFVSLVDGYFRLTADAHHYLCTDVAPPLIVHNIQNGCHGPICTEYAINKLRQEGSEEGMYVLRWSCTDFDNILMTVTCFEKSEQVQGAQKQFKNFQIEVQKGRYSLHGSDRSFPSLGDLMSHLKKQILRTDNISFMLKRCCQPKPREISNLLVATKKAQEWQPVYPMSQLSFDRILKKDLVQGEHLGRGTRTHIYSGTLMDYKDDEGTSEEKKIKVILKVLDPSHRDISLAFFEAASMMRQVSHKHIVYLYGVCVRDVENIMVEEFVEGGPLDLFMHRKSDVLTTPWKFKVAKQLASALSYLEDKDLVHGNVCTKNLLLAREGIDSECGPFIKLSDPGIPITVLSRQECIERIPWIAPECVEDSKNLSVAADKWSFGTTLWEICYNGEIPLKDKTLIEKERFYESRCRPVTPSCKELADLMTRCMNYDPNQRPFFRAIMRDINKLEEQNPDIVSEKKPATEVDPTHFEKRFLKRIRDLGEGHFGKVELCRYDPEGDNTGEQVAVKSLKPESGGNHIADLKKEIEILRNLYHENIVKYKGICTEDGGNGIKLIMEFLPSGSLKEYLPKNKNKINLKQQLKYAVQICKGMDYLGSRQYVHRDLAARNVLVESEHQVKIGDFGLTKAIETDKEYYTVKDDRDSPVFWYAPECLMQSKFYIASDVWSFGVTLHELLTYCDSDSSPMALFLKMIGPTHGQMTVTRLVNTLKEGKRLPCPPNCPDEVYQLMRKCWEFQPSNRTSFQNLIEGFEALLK

[7] = biological target: Tyrosine-protein kinase Lyn (Homo sapiens, UniProt P07948); experiment: Inhibition of recombinant LYN (unknown origin)
Tyrosine-protein kinase Lyn, sequence (P07948 whole entry): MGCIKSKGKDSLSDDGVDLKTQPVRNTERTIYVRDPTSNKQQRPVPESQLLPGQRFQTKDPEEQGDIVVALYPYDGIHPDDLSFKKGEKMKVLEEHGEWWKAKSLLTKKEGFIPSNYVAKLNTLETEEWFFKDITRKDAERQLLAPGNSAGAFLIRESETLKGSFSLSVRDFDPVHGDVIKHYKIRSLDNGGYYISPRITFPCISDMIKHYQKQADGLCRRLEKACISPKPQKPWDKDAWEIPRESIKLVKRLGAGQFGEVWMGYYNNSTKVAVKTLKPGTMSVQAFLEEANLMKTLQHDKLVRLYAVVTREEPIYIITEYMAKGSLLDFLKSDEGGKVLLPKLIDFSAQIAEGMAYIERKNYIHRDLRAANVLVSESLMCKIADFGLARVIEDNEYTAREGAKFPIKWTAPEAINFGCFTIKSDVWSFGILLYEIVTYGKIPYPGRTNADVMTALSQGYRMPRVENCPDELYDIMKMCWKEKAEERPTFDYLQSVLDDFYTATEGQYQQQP

[8] = biological target: MAP kinase-interacting serine/threonine-protein kinase 2 (Homo sapiens, UniProt Q9HBH9); experiment: Inhibition of recombinant MNK2 (unknown origin)
MAP kinase-interacting serine/threonine-protein kinase 2, sequence (Q9HBH9 whole entry): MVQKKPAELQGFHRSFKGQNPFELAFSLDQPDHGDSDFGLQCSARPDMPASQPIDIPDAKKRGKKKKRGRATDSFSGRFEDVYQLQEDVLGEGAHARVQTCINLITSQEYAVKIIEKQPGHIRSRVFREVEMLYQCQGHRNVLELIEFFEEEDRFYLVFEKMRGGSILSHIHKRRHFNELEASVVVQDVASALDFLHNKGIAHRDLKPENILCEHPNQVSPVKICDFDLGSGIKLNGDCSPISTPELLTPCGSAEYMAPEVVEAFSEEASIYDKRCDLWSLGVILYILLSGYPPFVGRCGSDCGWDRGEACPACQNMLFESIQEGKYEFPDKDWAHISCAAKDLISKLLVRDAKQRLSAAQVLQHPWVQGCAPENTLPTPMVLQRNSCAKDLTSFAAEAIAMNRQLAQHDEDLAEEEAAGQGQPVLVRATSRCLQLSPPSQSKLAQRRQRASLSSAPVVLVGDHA

[9] = biological target: Serine/threonine-protein kinase 26 (Homo sapiens, UniProt Q9P289); experiment: Inhibition of recombinant MST4 (unknown origin)
[10] = biological target: Serine/threonine-protein kinase Nek6 (Homo sapiens, UniProt Q9HC98); experiment: Inhibition of recombinant NEK6 (unknown origin)
Serine/threonine-protein kinase Nek6, sequence (Q9HC98 whole entry): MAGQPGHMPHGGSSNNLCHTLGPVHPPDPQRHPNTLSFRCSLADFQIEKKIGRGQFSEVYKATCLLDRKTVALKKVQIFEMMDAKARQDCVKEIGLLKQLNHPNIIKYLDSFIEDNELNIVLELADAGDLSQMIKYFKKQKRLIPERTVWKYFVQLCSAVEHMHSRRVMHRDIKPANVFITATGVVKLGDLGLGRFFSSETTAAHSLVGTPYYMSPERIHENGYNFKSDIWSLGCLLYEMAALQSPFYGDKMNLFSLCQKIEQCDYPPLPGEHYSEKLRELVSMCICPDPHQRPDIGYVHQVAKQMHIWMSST

[11] = biological target: Serine/threonine-protein kinase pim-1 (Homo sapiens, UniProt P11309); experiment: Inhibition of recombinant PIM1 (unknown origin)
Serine/threonine-protein kinase pim-1, sequence (P11309 whole entry): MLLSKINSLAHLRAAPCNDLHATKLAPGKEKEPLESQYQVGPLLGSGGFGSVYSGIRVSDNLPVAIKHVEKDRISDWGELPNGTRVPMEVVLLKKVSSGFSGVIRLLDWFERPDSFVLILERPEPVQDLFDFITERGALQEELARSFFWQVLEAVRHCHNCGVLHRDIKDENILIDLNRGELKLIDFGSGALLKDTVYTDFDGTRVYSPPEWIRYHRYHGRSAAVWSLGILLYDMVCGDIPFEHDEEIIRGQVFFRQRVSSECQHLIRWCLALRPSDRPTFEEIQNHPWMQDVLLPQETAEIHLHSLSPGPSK

[12] = biological target: Serine/threonine-protein kinase PLK3 (Homo sapiens, UniProt Q9H4B4); experiment: Inhibition of recombinant PLK3 (unknown origin)
[13] = biological target: Non-receptor tyrosine-protein kinase TYK2 (Homo sapiens, UniProt P29597); experiment: Inhibition of recombinant TYK 2 (unknown origin)
Non-receptor tyrosine-protein kinase TYK2, sequence (P29597 whole entry): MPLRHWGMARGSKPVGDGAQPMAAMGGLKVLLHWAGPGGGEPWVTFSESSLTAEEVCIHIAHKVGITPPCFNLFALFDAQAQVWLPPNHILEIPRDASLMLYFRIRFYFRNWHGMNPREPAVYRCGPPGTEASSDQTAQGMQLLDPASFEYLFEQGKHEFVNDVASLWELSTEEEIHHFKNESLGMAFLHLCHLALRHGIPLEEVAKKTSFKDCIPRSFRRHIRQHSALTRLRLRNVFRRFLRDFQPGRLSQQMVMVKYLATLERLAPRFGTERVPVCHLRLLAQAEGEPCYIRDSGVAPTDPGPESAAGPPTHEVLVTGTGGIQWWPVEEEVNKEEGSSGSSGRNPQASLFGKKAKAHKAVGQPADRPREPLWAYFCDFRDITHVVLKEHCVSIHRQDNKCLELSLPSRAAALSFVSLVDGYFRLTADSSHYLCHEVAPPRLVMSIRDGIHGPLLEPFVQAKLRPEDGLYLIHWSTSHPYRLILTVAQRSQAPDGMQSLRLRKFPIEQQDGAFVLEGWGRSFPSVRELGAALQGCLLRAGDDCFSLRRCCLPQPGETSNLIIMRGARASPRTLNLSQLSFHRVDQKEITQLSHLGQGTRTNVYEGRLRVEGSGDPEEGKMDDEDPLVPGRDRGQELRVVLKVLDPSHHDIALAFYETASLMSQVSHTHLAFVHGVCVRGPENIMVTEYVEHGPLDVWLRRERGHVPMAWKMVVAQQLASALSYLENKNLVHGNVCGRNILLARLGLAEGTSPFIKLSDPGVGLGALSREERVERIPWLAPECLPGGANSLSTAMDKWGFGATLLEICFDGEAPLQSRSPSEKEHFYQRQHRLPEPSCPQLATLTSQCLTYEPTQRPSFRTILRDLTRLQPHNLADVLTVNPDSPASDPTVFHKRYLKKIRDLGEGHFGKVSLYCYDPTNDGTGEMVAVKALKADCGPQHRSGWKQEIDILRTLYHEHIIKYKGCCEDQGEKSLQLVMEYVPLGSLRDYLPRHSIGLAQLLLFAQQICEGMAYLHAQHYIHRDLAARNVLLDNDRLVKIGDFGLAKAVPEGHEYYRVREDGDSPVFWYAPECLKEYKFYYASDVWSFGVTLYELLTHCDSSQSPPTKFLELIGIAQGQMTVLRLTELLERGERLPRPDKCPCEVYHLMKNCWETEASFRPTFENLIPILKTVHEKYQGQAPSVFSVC

SNB-75 = experiment: Antiproliferative activity against human SNB-75 cells assessed as inhibition of cell growth incubated for 72 hrs by celltiter-glo assay; assay type: functional, cell-based; settings: SNB-75, 72 h
HeLa [14] = experiment: Antiproliferative activity against human HeLa cells assessed as inhibition of cell growth incubated for 72 hrs by celltiter-glo assay; assay type: functional, cell-based
HCT-15 = experiment: Antiproliferative activity against human HCT-15 cells assessed as inhibition of cell growth incubated for 72 hrs by celltiter-glo assay; assay type: functional, cell-based; settings: HCT-15, 72 h
LS174T = experiment: Antiproliferative activity against human LS174T cells assessed as inhibition of cell growth incubated for 72 hrs by celltiter-glo assay; assay type: functional, cell-based
K562 = experiment: Antiproliferative activity against human K562 cells assessed as inhibition of cell growth incubated for 72 hrs by celltiter-glo assay; assay type: functional, cell-based; settings: K562, 72 h
KG-1 = experiment: Antiproliferative activity against human KG-1 cells assessed as inhibition of cell growth incubated for 72 hrs by celltiter-glo assay; assay type: functional, cell-based; settings: KG-1, 72 h
Calu-3 = experiment: Antiproliferative activity against human Calu-3 cells assessed as inhibition of cell growth incubated for 72 hrs by celltiter-glo assay; assay type: functional, cell-based; settings: Calu-3, 72 h
NCI-H2126 = experiment: Antiproliferative activity against human NCI-H2126 cells assessed as inhibition of cell growth incubated for 72 hrs by celltiter-glo assay; assay type: functional, cell-based; settings: NCI-H2126, 72 h
HCC78 = experiment: Antiproliferative activity against human HCC78 cells assessed as inhibition of cell growth incubated for 72 hrs by celltiter-glo assay; assay type: functional, cell-based; settings: HCC78, 72 h
SU-DHL10 = experiment: Antiproliferative activity against human SU-DHL-10 cells assessed as inhibition of cell growth incubated for 72 hrs by celltiter-glo assay; assay type: functional, cell-based; settings: SU-DHL10, 72 h
SUD4 = experiment: Antiproliferative activity against human SU-DHL-4 cells assessed as inhibition of cell growth incubated for 72 hrs by celltiter-glo assay; assay type: functional, cell-based; settings: SU-DHL-4, 72 h
Toledo = experiment: Antiproliferative activity against human Toledo cells assessed as inhibition of cell growth incubated for 72 hrs by celltiter-glo assay; assay type: functional, cell-based
SR = experiment: Antiproliferative activity against human SR cells assessed as inhibition of cell growth incubated for 72 hrs by celltiter-glo assay; assay type: functional, cell-based
[15] = Antiproliferative activity against human RPMI 8226/ADR cells assessed as inhibition of cell growth incubated for 72 hrs by celltiter-glo assay; assay type: functional, cell-based
LP-1 = experiment: Antiproliferative activity against human LP-1 cells assessed as inhibition of cell growth incubated for 72 hrs by celltiter-glo assay; assay type: functional, cell-based; settings: LP-1, 72 h
[16] = Antiproliferative activity against human GM13705 cells assessed as inhibition of cell growth incubated for 72 hrs by celltiter-glo assay; assay type: functional, cell-based; settings: GM13705, 72 h
U2OS = experiment: Antiproliferative activity against human U2OS cells assessed as inhibition of cell growth incubated for 72 hrs by celltiter-glo assay; assay type: functional, cell-based
OVCAR-8 = experiment: Antiproliferative activity against human OVCAR-8 cells assessed as inhibition of cell growth incubated for 72 hrs by celltiter-glo assay; assay type: functional, cell-based; settings: OVCAR-8, 72 h
TK-10 = experiment: Antiproliferative activity against human TK-10 cells assessed as inhibition of cell growth incubated for 72 hrs by celltiter-glo assay; assay type: functional, cell-based; settings: TK-10, 72 h
UO-31 = experiment: Antiproliferative activity against human UO-31 cells assessed as inhibition of cell growth incubated for 72 hrs by celltiter-glo assay; assay type: functional, cell-based; settings: UO-31, 72 h
RO82-W-1 = experiment: Antiproliferative activity against human RO82-W-1 cells assessed as inhibition of cell growth incubated for 72 hrs by celltiter-glo assay; assay type: functional, cell-based; settings: RO82-W-1, 72 h
HeLa [17] = experiment: Inhibition of cdc20-MAD2 protein-protein interaction in human nocodazole arrested HeLa cells by Coimmunoprecipitation analysis; assay type: cell-based
HCT-116 [18] = experiment: Growth inhibition of human HCT-116 cells at 1 micromol/L incubated for 24 hrs; assay type: functional, cell-based; settings: dose 1.0 µmol/L
HCT-116 [19] = experiment: Cell cycle arrest in human HCT-116 cells assessed as accumulation of cells at G2/M phase at 0.2 to 1 micromol/L incubated for 48 hrs by FACS/PI staining based flow cytometric analysis; assay type: functional; settings: dose 0.2-1 µmol/L
A2780 = experiment: Induction of apoptosis in human A2780 cells assessed as PARP clevage at 0.2 to 1 micromol/L incubated for 2 to 72 hrs by Western blot analysis; assay type: functional, cell-based; settings: dose 0.2-1 µmol/L, time 2-72 hrs
HCT-116 [20] = experiment: Induction of apoptosis in human HCT-116 cells at 1 micromol/L incubated for 24 to 72 hrs by FACS/PI staining based flow cytometric analysis; assay type: functional; settings: dose 1 µmol/L; time 24-72 hrs; at 1 µM
[21] = Cmax in Athymic nu-nu mouse at 10 mg/kg, iv measured upto 24 hrs by LC-MS/MS analysis; assay type: ADME, organism-based; settings: in vivo
[22] = Volume of distribution at steady state in Athymic nu-nu mouse at 10 mg/kg, iv measured upto 24 hrs by LC-MS/MS analysis; assay type: ADME, organism-based; settings: in vivo, read-out: Vdss
[23] = biological target: Cyclin-dependent kinase 5/CDK5 activator 1 (Homo sapiens, UniProt Q00535)
Description: Inhibition of recombinant CDK5/P25 (unknown origin)

[24] = biological target: Tyrosine-protein kinase SYK (Homo sapiens, UniProt P43405)
Description: Inhibition of recombinant SYK (unknown origin)

CCc1cccc(CC)c1NC(=O)c1nn(C)c2c1CCc1cnc(Nc3ccc(C(=O)NC4CCN(C)CC4)cc3OC(F)(F)F)nc1-2
IC50 [1]: > 10 µM
IC50 [2]: > 10 µM
IC50 [3]: > 10 µM
IC50 [4]: > 10 µM
IC50 [5]: > 10 µM
IC50 [6]: > 10 µM
IC50 [7]: > 10 µM
IC50 [8]: > 10 µM
IC50 [9]: > 10 µM
IC50 [10]: 6.02 µM
IC50 [11]: > 10 µM
IC50 [12]: > 10 µM
IC50 [13]: > 10 µM
IC50 (SNB-75): 2.2 µM
IC50 (HeLa [14]): 6.46 µM
IC50 (HCT-15): 0.232 µM
IC50 (LS174T): 1.94 µM
IC50 (K562): 2.71 µM
IC50 (KG-1): 2.96 µM
IC50 (Calu-3): 1.44 µM
IC50 (NCI-H2126): 4.63 µM
IC50 (HCC78): 10 µM
IC50 (SU-DHL10): 1.58 µM
IC50 (SUD4): 1.6 µM
IC50 (Toledo): 1.72 µM
IC50 (SR): 6.96 µM
IC50 [15]: 1.49 µM
IC50 (LP-1): 3.48 µM
IC50 [16]: 10 µM
IC50 (U2OS): 2.09 µM
IC50 (OVCAR-8): 1.21 µM
IC50 (TK-10): 1.54 µM
IC50 (UO-31): 3.62 µM
IC50 (RO82-W-1): 9.31 µM
inhibition (HeLa [17]): Active
growth inhibition (GI) (HCT-116 [18]): Active
Activity (HCT-116 [19]): Active
Activity (A2780): Active
Activity (HCT-116 [20]): 100%
Cmax [21]: 4.79 µM
Vd [22]: 5.45 L/kg
IC50 [23]: > 10 µM
IC50 [24]: > 10 µM
